Measured values published in PubChem BioAssay AID1963961 (Molecular Pharmacology Branch, DTP, NCI, 2024).
pIC50: −log10 of the molar value. Values joined by “and” are separate entries in the source; they are usually repeats but may differ in a detail not shown here. Equal values may be shown once.

Test system: K98450-129-R-PDC multicell spheroids, viability
Test: Anticancer human tumor K98450-129-R-PDC patient-derived colon adenocarcinoma cell line growth inhibition [PI3K]
Conditions: for viability, T/C: stronger effect = lower value
Outline: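 Complex 3D spheroids (cancer cells + endothelial HUVEC + mesenchymal stem cells); drug pairs of targeted agent x inavolisib/alpelisib/duvelisib/copanlisib; half-log series from ~Cmax, max 10 microM if Cmax unknown; endpoint viability.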

[1] = curve of first compound, second compound 0.00316 µM
[2] = curve of first compound, second compound 0.01 µM
[3] = curve of first compound, second compound 0.0316 µM
[4] = curve of first compound, second compound 0.1 µM
[5] = curve of first compound, second compound 0.316 µM
[6] = curve of first compound, second compound 1 µM
[7] = second compound 0.00316 µM, first compound 0.0316 µM
[8] = second compound 0.00316 µM, first compound 0.1 µM
[9] = second compound 0.00316 µM, first compound 0.316 µM
[10] = second compound 0.00316 µM, first compound 1 µM
[11] = second compound 0.00316 µM, first compound 3.16 µM
[12] = second compound 0.00316 µM, first compound 10 µM
[13] = second compound 0.01 µM, first compound 0.0316 µM
[14] = second compound 0.01 µM, first compound 0.1 µM
[15] = second compound 0.01 µM, first compound 0.316 µM
[16] = second compound 0.01 µM, first compound 1 µM
[17] = second compound 0.01 µM, first compound 3.16 µM
[18] = second compound 0.01 µM, first compound 10 µM
[19] = second compound 0.0316 µM, first compound 0.0316 µM
[20] = second compound 0.0316 µM, first compound 0.1 µM
[21] = second compound 0.0316 µM, first compound 0.316 µM
[22] = second compound 0.0316 µM, first compound 1 µM
[23] = second compound 0.0316 µM, first compound 3.16 µM
[24] = second compound 0.0316 µM, first compound 10 µM
[25] = second compound 0.1 µM, first compound 0.0316 µM
[26] = second compound 0.1 µM, first compound 0.1 µM
[27] = second compound 0.1 µM, first compound 0.316 µM
[28] = second compound 0.1 µM, first compound 1 µM
[29] = second compound 0.1 µM, first compound 3.16 µM
[30] = second compound 0.1 µM, first compound 10 µM
[31] = second compound 0.316 µM, first compound 0.0316 µM
[32] = second compound 0.316 µM, first compound 0.1 µM
[33] = second compound 0.316 µM, first compound 0.316 µM
[34] = second compound 0.316 µM, first compound 1 µM
[35] = second compound 0.316 µM, first compound 3.16 µM
[36] = second compound 0.316 µM, first compound 10 µM
[37] = second compound 1 µM, first compound 0.0316 µM
[38] = second compound 1 µM, first compound 0.1 µM
[39] = second compound 1 µM, first compound 0.316 µM
[40] = second compound 1 µM, first compound 1 µM
[41] = second compound 1 µM, first compound 3.16 µM
[42] = second compound 1 µM, first compound 10 µM
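Further: spheroids exposed to agents for seven days before read-out.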

Work on `CC1(C)CCC(Nc2ncc(C(F)(F)F)c(-c3c[nH]c4c(P(C)(C)=O)c(C#N)ccc34)n2)CN1` (stereo not drawn) + CC(Nc1ccc2c(c1)OCCn1cc(N3C(=O)OCC3C(F)F)nc1-2)C(N)=O yielded a pIC50 [1] of under 5.00, a pIC50 [2] of under 5.00 and a pIC50 [3] of under 5.00. The pIC50 [4] was under 5.00, the pIC50 [5] was under 5.00 and the pIC50 [6] was under 5.00. The viability, T/C [7] was 108%, the viability, T/C [8] was 103% and the viability, T/C [9] was 95.8%. The viability, T/C [10] was 67.7%, the viability, T/C [11] was 64.1% and the viability, T/C [12] was 63.8%. The viability, T/C [13] was 116%, the viability, T/C [14] was 98.2% and the viability, T/C [15] was 92.7%. For the same compound, the viability, T/C [16] was 68.9%, the viability, T/C [17] was 67.2% and the viability, T/C [18] was 62.2%. It also gave a viability, T/C [19] of 116%, a viability, T/C [20] of 109% and a viability, T/C [21] of 81.5%. The viability, T/C [22] was 66.8%, the viability, T/C [23] was 69.3% and the viability, T/C [24] was 65.5%. For the same compound, the viability, T/C [25] was 105%, the viability, T/C [26] was 107% and the viability, T/C [27] was 82.6%. It also gave a viability, T/C [28] of 66.9%, a viability, T/C [29] of 67.8% and a viability, T/C [30] of 61.2%. The viability, T/C [31] was 100%, the viability, T/C [32] was 101% and the viability, T/C [33] was 85.4%. The viability, T/C [34] was 69.3%, the viability, T/C [35] was 66.7% and the viability, T/C [36] was 60.7%. For the same compound, the viability, T/C [37] was 91.9%, the viability, T/C [38] was 90.1% and the viability, T/C [39] was 79.1%. It also gave a viability, T/C [40] of 67.5%, a viability, T/C [41] of 69.6% and a viability, T/C [42] of 60.6%.

In the case of `C#Cc1c(F)ccc2cc(O)cc(-c3ncc4c(N5CC6CCC(C5)N6)nc(OCC56CCCN5CC(F)C6)nc4c3F)c12` (stereo not drawn), the viability, T/C (compound 0.0316 µM) was 109% [middle of 4 runs], the viability, T/C (compound 0.1 µM) was 106% [middle of 4 runs] and the viability, T/C (compound 0.316 µM) was 104% (2×) and 101% and 102%. For the same compound, the viability, T/C (compound 1 µM) was 105% [middle of 4 runs], the viability, T/C (compound 3.16 µM) was 99.8% and 91.5% (2×) and 108% and the viability, T/C (compound 10 µM) was 89.9% [middle of 4 runs]. For the same compound, the pIC50 (curve of compound) was under 5.00.

For `CC(C)NCC(C(=O)N1CCN(c2ncnc3c2C(C)CC3O)CC1)c1ccc(Cl)cc1` (stereo not drawn) + CC(Nc1ccc2c(c1)OCCn1cc(N3C(=O)OCC3C(F)F)nc1-2)C(N)=O, the pIC50 [1] was under 5.00, the pIC50 [2] was under 5.00 and the pIC50 [3] was under 5.00. The pIC50 [4] was under 5.00, the pIC50 [5] was under 5.00 and the pIC50 [6] was under 5.00. The viability, T/C [7] was 111%, the viability, T/C [8] was 98% and the viability, T/C [9] was 101%. The viability, T/C [10] was 101%, the viability, T/C [11] was 109% and the viability, T/C [12] was 98.4%. The viability, T/C [13] was 115%, the viability, T/C [14] was 96.1% and the viability, T/C [15] was 105%. The viability, T/C [16] was 98.1%, the viability, T/C [17] was 104% and the viability, T/C [18] was 102%. The viability, T/C [19] was 109%, the viability, T/C [20] was 104% and the viability, T/C [21] was 98.9%. For the same compound, the viability, T/C [22] was 101%, the viability, T/C [23] was 109% and the viability, T/C [24] was 96.9%. For the same compound, the viability, T/C [25] was 96.2%, the viability, T/C [26] was 91.7% and the viability, T/C [27] was 101%. It also gave a viability, T/C [28] of 102%, a viability, T/C [29] of 101% and a viability, T/C [30] of 96.2%. For the same compound, the viability, T/C [31] was 91%, the viability, T/C [32] was 90.5% and the viability, T/C [33] was 100%. The viability, T/C [34] was 99.2%, the viability, T/C [35] was 111% and the viability, T/C [36] was 94.2%. It also gave a viability, T/C [37] of 85.2%, a viability, T/C [38] of 85.4% and a viability, T/C [39] of 96.8%. It also gave a viability, T/C [40] of 94.1%, a viability, T/C [41] of 100% and a viability, T/C [42] of 95.2%.

`Cn1cnc2c(F)c(Nc3ccc(Br)cc3Cl)c(C(=O)NOCCO)cc21` + CC(Nc1ncnc2nc[nH]c12)c1cc2cccc(Cl)c2c(=O)n1-c1ccccc1 gave a pIC50 [3] of 6.05, a pIC50 [4] of 6.01 and a pIC50 [5] of 6.04. For the same compound, the pIC50 [6] was 6.16, the pIC50 (curve of first compound, second compound 3.16 µM) was 6.09 and the pIC50 (curve of first compound, second compound 10 µM) was 6.14. For the same compound, the viability, T/C (second compound 0.0316 µM, first compound 0.00949 µM) was 95.4%, the viability, T/C (second compound 0.0316 µM, first compound 0.03 µM) was 99.9% and the viability, T/C (second compound 0.0316 µM, first compound 0.0949 µM) was 86.3%. For the same compound, the viability, T/C (second compound 0.0316 µM, first compound 0.3 µM) was 70.7%, the viability, T/C (second compound 0.0316 µM, first compound 0.949 µM) was 50.1% and the viability, T/C (second compound 0.0316 µM, first compound 3 µM) was 24.9%. The viability, T/C (second compound 0.1 µM, first compound 0.00949 µM) was 99.5%, the viability, T/C (second compound 0.1 µM, first compound 0.03 µM) was 88.6% and the viability, T/C (second compound 0.1 µM, first compound 0.0949 µM) was 82.2%. The viability, T/C (second compound 0.1 µM, first compound 0.3 µM) was 91.5%, the viability, T/C (second compound 0.1 µM, first compound 0.949 µM) was 50.9% and the viability, T/C (second compound 0.1 µM, first compound 3 µM) was 24.2%. For the same compound, the viability, T/C (second compound 0.316 µM, first compound 0.00949 µM) was 100%, the viability, T/C (second compound 0.316 µM, first compound 0.03 µM) was 103% and the viability, T/C (second compound 0.316 µM, first compound 0.0949 µM) was 80.2%. The viability, T/C (second compound 0.316 µM, first compound 0.3 µM) was 65%, the viability, T/C (second compound 0.316 µM, first compound 0.949 µM) was 57.2% and the viability, T/C (second compound 0.316 µM, first compound 3 µM) was 16%. It also gave a viability, T/C (second compound 1 µM, first compound 0.00949 µM) of 89.8%, a viability, T/C (second compound 1 µM, first compound 0.03 µM) of 78.4% and a viability, T/C (second compound 1 µM, first compound 0.0949 µM) of 77.3%. For the same compound, the viability, T/C (second compound 1 µM, first compound 0.3 µM) was 71.7%, the viability, T/C (second compound 1 µM, first compound 0.949 µM) was 41.9% and the viability, T/C (second compound 1 µM, first compound 3 µM) was 22.2%. For the same compound, the viability, T/C (second compound 3.16 µM, first compound 0.00949 µM) was 92.8%, the viability, T/C (second compound 3.16 µM, first compound 0.03 µM) was 80.4% and the viability, T/C (second compound 3.16 µM, first compound 0.0949 µM) was 80.9%. It also gave a viability, T/C (second compound 3.16 µM, first compound 0.3 µM) of 57.9%, a viability, T/C (second compound 3.16 µM, first compound 0.949 µM) of 55.9% and a viability, T/C (second compound 3.16 µM, first compound 3 µM) of 15.5%. It also gave a viability, T/C (second compound 10 µM, first compound 0.00949 µM) of 87.8%, a viability, T/C (second compound 10 µM, first compound 0.03 µM) of 85.6% and a viability, T/C (second compound 10 µM, first compound 0.0949 µM) of 70%. It also gave a viability, T/C (second compound 10 µM, first compound 0.3 µM) of 76.4%, a viability, T/C (second compound 10 µM, first compound 0.949 µM) of 42% and a viability, T/C (second compound 10 µM, first compound 3 µM) of 14.1%.
